Assay results taken from patent EP1836906B1, “Healthy food product” (Unilever N.V., priority 2006, dated 2009).
Ends that are not written are not given here.

assay: Water solubility test (turbid appearance of 10 mg peptide in 10 ml de-mineralised water); conditions: water at 20 C and pH 6.5
Method: Peptides for use in food products according to the invention are water-insoluble in water at 20°C and a pH of 6.5. This can for example be evidenced by mixing 10 mg of the peptide into 10 ml of de-mineralised water at 20°C and pH 6.5, and stirring. A (measurable) turbid appearance of the solution after stirring is indicative of the fact that the peptide is water-insoluble.

| Molecule | Peptide category (substantially water-insoluble or soluble) |
| --- | --- |
| DDDDDD [DDDDDD, reference compound] | Soluble peptides |
| EAEWEY [EAEWEY, reference compound] | Soluble peptides |
| GGGGGGGG [GGGGGGGG] | Insoluble peptides |
| YYYYYY [YYYYYY] | Insoluble peptides |

The remaining lines, values ahead:

| Peptide category (substantially water-insoluble or soluble) | Molecule |
| --- | --- |
| Soluble peptides | GSGGSG [GSGGSG] |
| Soluble peptides | VEWEME [VEWEME, reference compound] |

assay: not given; conditions: pH 6.5

| Peptide category (substantially water-insoluble or soluble) | Molecule |
| --- | --- |
| Insoluble peptides | NCC(=O)NCC(=O)NCC(=O)NCC(=O)NCC(=O)NCC(=O)O [GGGGGG] |
